Assay results published in PMC5727165, “A switch in nucleotide affinity governs activation of the Src and Tec family kinases” (Scientific Reports, 2017).
“And” between values parts separate entries of the source, which are not always exact repeats. Equal entries are not always repeated.

Assays:
[1] = molecular target: T1, Itk^32K (Homo sapiens, UniProt Q08881); experiment: Fluorescence anisotropy binding of Mant-labelled nucleotides; details: wild type Itk^32K; 40 μM Mant-nucleotide, 20 °C
T1 construct: Human Itk^171–620 (Itk^32K); GST (cleaved yes); made in house; host or cells: baculovirus-infected Sf9 insect cells
T1 sequence (Q08881 171-620): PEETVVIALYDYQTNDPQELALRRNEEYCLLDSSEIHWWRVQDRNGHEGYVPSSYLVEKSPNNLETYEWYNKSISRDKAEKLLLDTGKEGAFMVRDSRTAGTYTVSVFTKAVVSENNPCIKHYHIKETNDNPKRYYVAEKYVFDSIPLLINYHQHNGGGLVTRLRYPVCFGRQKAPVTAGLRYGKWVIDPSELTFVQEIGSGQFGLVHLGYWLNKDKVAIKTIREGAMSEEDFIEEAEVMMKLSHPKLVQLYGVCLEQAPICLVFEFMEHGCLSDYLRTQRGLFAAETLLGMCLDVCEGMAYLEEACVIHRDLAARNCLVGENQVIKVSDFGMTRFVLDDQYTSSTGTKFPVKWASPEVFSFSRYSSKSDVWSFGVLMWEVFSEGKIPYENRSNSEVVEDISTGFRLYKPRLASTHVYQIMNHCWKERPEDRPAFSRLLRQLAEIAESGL
Description: To characterise the nucleotide binding of Itk and Src, we purified recombinant wild type and mutant constructs of Itk and Src containing their respective SH3, SH2, and kinase domains (from here on referred to as Itk^32K, Src^32K, and Src^32KΔC, Fig. 1a). We confirmed the mass and homogeneity of isolated species by high-resolution anion exchange chromatography, intact mass spectrometry, and Western blotting with phospho-specific antibodies (Supplementary Figs 1–3). We performed fluorescence anisotropy measurements using Mant-labelled nucleotides. […] To avoid autophosphorylation during the course of the titration, we used the non-hydrolysable ATP analogue AMPPNP. […] Src^32K bound ADP approximately 6-fold more tightly than AMPPNP (Supplementary Fig. 4d).
Human Itk^171–620 (Itk^32K), mouse Src^85-535 (Src^32K), and mouse Src^85-523 (Src^32KΔC) as well as their respective point mutants were expressed as GST fusions in baculovirus-infected Sf9 insect cells. For the generation of Tyr527-phosphorylated Src^85-535, the protein was co-expressed with human Csk using pFastBac Dual (Invitrogen). Proteins were purified by sequential glutathione-sepharose affinity chromatography, TEV cleavage, high-resolution anion exchange, and size exclusion chromatography in a final buffer of 50 mM Tris, pH 7.5, 200 mM NaCl, 1 mM TCEP, 1% (v/v) glycerol.
The binding constants for ADP and AMPPNP were determined for Src and Itk proteins by fluorescence anisotropy, using 2′/3′-Mant-labelled nucleotides (Jena Bioscience). Increasing concentrations of Itk^32K, Itk^L351A or Src^32K were incubated with 40 μM Mant-nucleotide in 30 mM Tris pH 7.5, 200 mM NaCl, 5 mM MgCl2, and 1 mM TCEP. Measurements were made with a Perkin Elmer LS50B fluorimeter (λex = 355 nm, λem = 447 nm) at 20 °C. For each data point 50–60 measurements, each with an integration time of 1 s, were averaged. For competition nucleotide displacement assays, 40–80 μM of protein was incubated with 40 μM Mant-ADP until equilibrium was established. Unlabelled nucleotide was titrated into the reaction and fluorescence anisotropy monitored. The equilibrium inhibition constant for the unlabelled nucleotide was calculated from the fitted curve.

[2] = molecular target: T2, Src^32KΔC L255A (Mus musculus, UniProt P05480, L257A); experiment: Differential scanning fluorimetry (thermal stability vs nucleotide concentration); format: binding; details: Src^32KΔC L255A non-phosphorylated; DSF
T2 construct: mouse Src^85-523 (Src^32KΔC); GST (cleaved yes); made in house; host or cells: baculovirus-infected Sf9 insect cells
Description: Figure 3 An allosteric switch triggers nucleotide exchange. (a) Hydrophobic stack conservation in Src family kinases. The table illustrates the amino acid identity at each of the three positions in the hydrophobic stack in addition to the invariant tryptophan (Trp260 in Src) for all Src family kinase members. The positions are presented according to their N- to C-terminal order in the primary sequences. Where it was not possible to unambiguously determine the identity of the amino acid contributed by the SH2-kinase variable linker (V3), the residue is denoted by a question mark. (b) Small angle X-ray scattering of Itk^32K L351A (black). The scattering curve for wild type Itk^32K (cyan) is overlaid for comparison. […] (c) Rigid body modelling of Itk^32K L351A and fit to ab initio molecular envelope. Displacement of both the SH3 and SH2 domains is required for a good fit to the experimental scattering curve. (d) Determination of the binding constants of Itk^32K L351A for nucleotides by fluorescence anisotropy. […] (e) Determination of the thermal stabilities and relative binding affinities of non-phosphorylated Src^32KΔC L255A for nucleotides by differential scanning fluorimetry. […] TEXT PRINTED IN THE PICTURE: (d) Mant-ADP: Itk^32K L351A (non-phos) Kd (μM): 21.0 ± 2.1 | (d) Mant-ATP: Itk^32K L351A (non-phos) Kd (μM): 31.7 ± 2.7 | (e) ADP: Src^32KΔC L255A (non-phos) [nuc]1/2 (μM): 310 ± 20; Src^32KΔC L255A (non-phos) Tm^max (°C): 52.9; Src^32KΔC L255A (non-phos) ΔTm^max (°C): + 6.8 | (e) ATP: Src^32KΔC L255A (non-phos) [nuc]1/2 (μM): 100 ± 10; Src^32KΔC L255A (non-phos) Tm^max (°C): 54.2; Src^32KΔC L255A (non-phos) ΔTm^max (°C): + 8.1 | (e) apo: Src^32KΔC L255A (non-phos) Tm^max (°C): 46.1
Due to limiting protein concentrations, we were unable to obtain a binding curve by fluorescence anisotropy, so we instead used thermal stability measurements to investigate its nucleotide-binding properties. Determination of accurate binding constants from thermal stability measurements requires knowledge of the enthalpy of unfolding. However, for a given protein, the enthalpy of unfolding is independent of the ligand being tested, so comparison of the concentrations of nucleotide required for half maximal stabilisation is valid.
Thermal stabilities as a function of nucleotide concentration were measured by differential scanning fluorimetry (DSF). Samples contained 0.1 mg/ml protein in 50 mM Tris pH 7.5, 150 mM NaCl, 1 mM TCEP, and 5 mM MgCl2 with ADP, ATP, or AMPPNP concentrations ranging from 0–16 mM. Samples were measured in triplicate using a BioRad iQ™5 Multicolor Real-Time PCR Detection System. For detection of phosphorylated protein, samples were diluted and 1 ng and 15 ng were loaded to SDS-PAGE for Src and Itk proteins, respectively. Phosphorylation was measured by immunoblot.

Kd [1]: 23.7 µM and 24 µM | Tm^max [2]: 52.9 °C | [nuc]1/2 (nucleotide concentration for half maximal stabilisation) [2]: 310 ± 20 µM
SMILES: Nc1ncnc2c1ncn2[C@@H]1O[C@H](COP(=O)(O)OP(=O)(O)O)[C@@H](O)[C@H]1O [ADP]
